Test results reported in the supplement of paper PMC5908809.

Key:
KAI3 (IL-2 2.5 ng/mL) [1] = test: percent inhibition of viability; higher = more inhibition; settings: 72 h
NK-YS (IL-2 2.5 ng/mL) [2] = test: as above; settings: 72 h
[3] = test system: normal primary NK cells, pool 3 (3 donors) (IL-2 2.5 ng/mL); test: as above; settings: 72 h
[4] = test system: normal primary NK cells, pool 1 (3 donors), resting (IL-2 0 ng/mL); test: as above; settings: 72 h
IMC-1 (IL-2 20 ng/mL) [5] = test: as above; settings: 72 h
SNK-6 (IL-2 2.5 ng/mL) [6] = test: as above; settings: 72 h
[7] = test system: normal primary NK cells, pool 2 (3 donors) (IL-2 2.5 ng/mL); test: as above; settings: 72 h
DERL-7 (IL-2 2.5 ng/mL) [8] = test: as above; settings: 72 h
KHYG-1 (IL-2 2.5 ng/mL) [9] = test: as above; settings: 72 h
[10] = test system: normal primary NK cells, pool 1 (3 donors) (IL-2 2.5 ng/mL); test: as above; settings: 72 h
NKL (IL-2 2.5 ng/mL) [11] = test: as above; settings: 72 h
NK-92 (IL-2 2.5 ng/mL) [12] = test: as above; settings: 72 h
YT (IL-2 2.5 ng/mL) [13] = test: as above; settings: 72 h
[14] = test system: normal NK cells expanded with K562-aAPC; test: drug sensitivity score (DSS) (DSS units); higher = more sensitive; extreme values may be limits of the assay; settings: 72 h; IL-2 2.5 ng/mL
Method: (§1)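 Drug sensitivity and resistance testing on K562-aAPC-expanded normal NK cells: 5 concentrations (10-fold steps over a 10,000-fold range), 72 h at 37 °C, viability by CellTiter-Glo normalised to DMSO and benzethonium chloride controls; DSS from the fitted curve.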

KAI3 (IL-2 2.5 ng/mL) [15] = test: as above; settings: 72 h
NK-YS (IL-2 2.5 ng/mL) [16] = test: as above; settings: 72 h
[17] = test system: normal primary NK cells, pool 3 (3 donors) (IL-2 2.5 ng/mL); test: as above; settings: 72 h
[18] = test system: normal primary NK cells, pool 1 (3 donors), resting (IL-2 0 ng/mL); test: as above; settings: 72 h
IMC-1 (IL-2 20 ng/mL) [19] = test: as above; settings: 72 h
SNK-6 (IL-2 2.5 ng/mL) [20] = test: as above; settings: 72 h
[21] = test system: normal primary NK cells, pool 2 (3 donors) (IL-2 2.5 ng/mL); test: as above; settings: 72 h
DERL-7 (IL-2 2.5 ng/mL) [22] = test: as above; settings: 72 h
KHYG-1 (IL-2 2.5 ng/mL) [23] = test: as above; settings: 72 h
[24] = test system: normal primary NK cells, pool 1 (3 donors) (IL-2 2.5 ng/mL); test: as above; settings: 72 h
NKL (IL-2 2.5 ng/mL) [25] = test: as above; settings: 72 h
NK-92 (IL-2 2.5 ng/mL) [26] = test: as above; settings: 72 h
YT (IL-2 2.5 ng/mL) [27] = test: as above; settings: 72 h
[28] = test system: normal NK cells expanded with K562-aAPC; test: percent inhibition of viability; higher = more inhibition; settings: 72 h, IL-2 2.5 ng/mL
Method: as §1

Cc1cc(Nc2cc(N3CCN(C)CC3)nc(Sc3ccc(NC(=O)C4CC4)cc3)n2)n[nH]1 [Tozasertib] (max concentration tested 10000 nM)
percent inhibition of viability [%]
Settings | 1 nM | 10 nM | 100 nM | 1000 nM | 10000 nM
DERL-7 (IL-2 2.5 ng/mL) [8] | 3.54 | -3.04 | 72.5 | 62 | 82
IMC-1 (IL-2 20 ng/mL) [5] | -4.29 | 1.42 | 24 | 78 | 98
KAI3 (IL-2 2.5 ng/mL) [1] | -4.42 | 3.12 | 20.6 | 48.2 | 71.8
KHYG-1 (IL-2 2.5 ng/mL) [9] | -4.48 | 2.48 | 32.5 | 67.5 | 85.3
NK-92 (IL-2 2.5 ng/mL) [12] | -7.92 | -11.5 | 9.53 | 52.9 | 83.8
NK-YS (IL-2 2.5 ng/mL) [2] | -6.33 | 0.35 | 56.9 | 67.3 | 60.3
NKL (IL-2 2.5 ng/mL) [11] | -9.16 | -8.33 | -3.2 | 4.79 | 34.7
SNK-6 (IL-2 2.5 ng/mL) [6] | -3.9 | 3.63 | 58.1 | 74.3 | 61.7
YT (IL-2 2.5 ng/mL) [13] | -3.46 | -2.16 | 13.1 | 25.8 | 47.4
[3] | -7.32 | -4.94 | 0.04 | -0.07 | 19.2
[4] | 2.84 | -2.46 | -18 | -4.6 | 15.2
[7] | -9.84 | -5.4 | -5.23 | -0.34 | 41.1
[10] | -7.78 | -12.4 | -6.71 | 5.08 | 43.4
[28] | -7.6 | -9.83 | 27.1 | 35.3 | 38.2

Settings | drug sensitivity score
DERL-7 (IL-2 2.5 ng/mL) [22] | 23.6
IMC-1 (IL-2 20 ng/mL) [19] | 17.4
KAI3 (IL-2 2.5 ng/mL) [15] | 11.6
KHYG-1 (IL-2 2.5 ng/mL) [23] | 16.6
NK-92 (IL-2 2.5 ng/mL) [26] | 11.4
NK-YS (IL-2 2.5 ng/mL) [16] | 19.2
NKL (IL-2 2.5 ng/mL) [25] | 2.42
SNK-6 (IL-2 2.5 ng/mL) [20] | 20.9
YT (IL-2 2.5 ng/mL) [27] | 5.97
[14] | 9.96
[17] | 0.53
[18] | 0.14
[21] | 2.02
[24] | 3.05

CN1CCc2c(c3ccccc3n2Cc2ccc(C(=O)NO)cc2)C1 [Tubastatin A] (max concentration tested 10000 nM)
percent inhibition of viability [%]
Settings | 1 nM | 10 nM | 100 nM | 1000 nM | 10000 nM
DERL-7 (IL-2 2.5 ng/mL) [8] | -3.55 | 1.06 | -2.9 | -2.52 | 60
IMC-1 (IL-2 20 ng/mL) [5] | -3.32 | -4.63 | -0.4 | -1.55 | 84.5
KAI3 (IL-2 2.5 ng/mL) [1] | 2.16 | -0.84 | 7.18 | 38.8 | 90.5
KHYG-1 (IL-2 2.5 ng/mL) [9] | -2.63 | -7.38 | -2.24 | 5.2 | 68.8
NK-92 (IL-2 2.5 ng/mL) [12] | -3.57 | -14.2 | -5.66 | 22.2 | 92.4
NK-YS (IL-2 2.5 ng/mL) [2] | -4.34 | -5.38 | -3.76 | 9.99 | 54.1
NKL (IL-2 2.5 ng/mL) [11] | -6.98 | -8.33 | 6.76 | 35.4 | 74.1
SNK-6 (IL-2 2.5 ng/mL) [6] | 8.54 | 0.91 | 4.89 | 18.5 | 57
YT (IL-2 2.5 ng/mL) [13] | -0.87 | -2.95 | -0.96 | 6.63 | 72.9
[3] | -0.16 | 11.4 | -0.85 | -0.8 | 29.6
[4] | 8.81 | 19.6 | 12 | 26.2 | 81.9
[7] | -2.86 | 0.66 | 3.2 | 7.48 | 46.4
[10] | 7.05 | 12.2 | 16.9 | 13 | 63.5
[28] | -5.45 | -1.84 | -1.29 | 9.86 | 53.5

Settings | drug sensitivity score
DERL-7 (IL-2 2.5 ng/mL) [22] | 3.03
IMC-1 (IL-2 20 ng/mL) [19] | 4.57
KAI3 (IL-2 2.5 ng/mL) [15] | 9.51
KHYG-1 (IL-2 2.5 ng/mL) [23] | 4.58
NK-92 (IL-2 2.5 ng/mL) [26] | 8.57
NK-YS (IL-2 2.5 ng/mL) [16] | 4.55
NKL (IL-2 2.5 ng/mL) [25] | 8.2
SNK-6 (IL-2 2.5 ng/mL) [20] | 5.42
YT (IL-2 2.5 ng/mL) [27] | 5.09
[14] | 4.5
[17] | 1.21
[18] | 7.58
[21] | 3.66
[24] | 5.39

CN[C@@H]1C[C@H]2O[C@@](C)([C@@H]1OC)n1c3ccccc3c3c4c(c5c6ccccc6n2c5c31)C(=O)N[C@H]4O [UCN-01] (max concentration tested 10000 nM)
percent inhibition of viability [%]
Settings | 1 nM | 10 nM | 100 nM | 1000 nM | 10000 nM
DERL-7 (IL-2 2.5 ng/mL) [8] | 8.29 | 22.9 | 82.2 | 101 | 101
IMC-1 (IL-2 20 ng/mL) [5] | -7.27 | -2.85 | -13.4 | 100 | 101
KAI3 (IL-2 2.5 ng/mL) [1] | 6.37 | 19.1 | 95.1 | 105 | 107
KHYG-1 (IL-2 2.5 ng/mL) [9] | 4.96 | 7.2 | 103 | 110 | 108
NK-92 (IL-2 2.5 ng/mL) [12] | -0.38 | 4.42 | 89.2 | 107 | 109
NK-YS (IL-2 2.5 ng/mL) [2] | 2.38 | 1.74 | 83.6 | 96.9 | 105
NKL (IL-2 2.5 ng/mL) [11] | -2.69 | 2.69 | 78.1 | 90.6 | 106
SNK-6 (IL-2 2.5 ng/mL) [6] | -11 | 34 | 92.7 | 100 | 101
YT (IL-2 2.5 ng/mL) [13] | 4.61 | 17.4 | 28.1 | 93 | 108
[3] | -5.75 | 2.95 | 40.4 | 97.2 | 101
[4] | -5.95 | 4.23 | 23.4 | 84.6 | 92.1
[7] | -7.23 | 6.32 | 58.8 | 95.4 | 99
[10] | 4.79 | 0.37 | 51.1 | 95.7 | 99.2
[28] | 0.67 | 13.9 | 76.9 | 100 | 101

Settings | drug sensitivity score
DERL-7 (IL-2 2.5 ng/mL) [22] | 30.4
IMC-1 (IL-2 20 ng/mL) [19] | 17.1
KAI3 (IL-2 2.5 ng/mL) [15] | 32.4
KHYG-1 (IL-2 2.5 ng/mL) [23] | 31.8
NK-92 (IL-2 2.5 ng/mL) [26] | 29.2
NK-YS (IL-2 2.5 ng/mL) [16] | 27.8
NKL (IL-2 2.5 ng/mL) [25] | 27.4
SNK-6 (IL-2 2.5 ng/mL) [20] | 34
YT (IL-2 2.5 ng/mL) [27] | 20.2
[14] | 28.5
[17] | 22.5
[18] | 18.3
[21] | 24.8
[24] | 23.8
